Laboratory results taken from patent US20240000868A1, “Composition Containing Bifidobacterium Lactis and Human Milk Oligosaccharides and Application Thereof” (Inner Mongolia Yili Industrial Group Co., Ltd., priority 2020, published 2024).

System: Staphylococcus aureus ATCC25923
Assay: Disc diffusion test of inhibition zone
Type: cell-based
Conditions: HN019 1×10^8 CFU; gentamicin 200 μg/mL; 37° C., 18 hours
Experimental: Discs were prepared with sterile filter paper, the test substances HMO (10 mg/mL, 30 mg/mL) or probiotic (1×10^8 CFU) were introduced thereto, and the discs were dried overnight under sterile conditions. Staphylococcus aureus ATCC25923 (1.0×10^6 CFU/mL) was uniformly applied on the surface of an NGM agar plate, and then the discs were placed on the surface of the inoculated agar plate. Gentamicin (200 μg/mL) was used as a positive control. All plates were incubated at 37° C. for 18 hours.

## Gentamicin
  transparent inhibition zone around disc (direct antibacterial effect): formation of a transparent inhibition zone
